Measured values: article PMC2817922, “Inhibitory Activity of Marine Sponge-Derived Natural Products against Parasitic Protozoa” (Marine Drugs, 2010)
≈ marks a conversion by molar mass, not a printed value. Where two headings read alike, the source gives them in different places.

Key:
[1] = tested on: Trypanosoma brucei rhodesiense, STIB 900 strain; assay: Activity against Trypanosoma brucei rhodesiense (Alamar Blue); assay type: cell-based; details: read-out: IC50 Trypanosoma b. rhodesiense
Procedure: Trypanosoma brucei rhodesiense, STIB 900 strain, and the standard drug, melarsoprol, were used for the assay. This stock was isolated in 1982 from a human patient in Tanzania and after several mouse passages cloned and adapted to axenic culture conditions. Minimum Essential Medium (50 μL) supplemented with 25 mM HEPES, 1g/L additional glucose, 1% MEM non-essential amino acids (100x), 0.2 mM 2-mercaptoethanol, 1 mM Na-pyruvate and 15% heat inactivated horse serum was added to each well of a 96-well microtiter plate. Serial drug dilutions of seven 3-fold dilution steps covering a range from 90 to 0.123 μg/mL were prepared. Then 10^4 bloodstream forms of T. b. rhodesiense STIB 900 in 50 μL was added to each well and the plate incubated at 37 °C under a 5% CO2 atmosphere for 72 h. 10 μL Alamar Blue (resazurin, 12.5 mg in 100 mL double-distilled water) was then added to each well and incubation continued for a further 2–4 h. Then, the plates were read with a Spectramax Gemini XS microplate fluorometer (Molecular Devices Cooperation, Sunnyvale, CA, USA) using an excitation wavelength of 536 nm and an emission wavelength of 588 nm. Data were analyzed using the microplate reader software Softmax Pro (Molecular Devices Cooperation, Sunnyvale, CA, USA).

P. falciparum K1 strain = assay: Activity against Plasmodium falciparum ([3H]-hypoxanthine incorporation); assay type: cell-based; details: for IC50: Plasmodium falciparum
Procedure: In vitro activity against erythrocytic stages of P. falciparum was determined by a modified [^3H]-hypoxanthine incorporation assay, using the chloroquine- and pyrimethamine-resistant K1 strain and the standard drug […]. Briefly, parasite cultures incubated in RPMI 1640 medium with 5% Albumax (without hypoxanthine) were exposed to serial drug dilutions in microtiter plates. After 48 h of incubation at 37°C in a reduced oxygen atmosphere, 0.5 μCi ^3H-hypoxanthine was added to each well. Cultures were incubated for a further 24 h before they were harvested onto glass-fiber filters and washed with distilled water. The radioactivity was counted using a Betaplate™ liquid scintillation counter (Wallac, Zurich). […] IC50 values were calculated from the sigmoidal inhibition curves using Microsoft Excel. Chloroquine was the reference drug used.

[2] = tested on: L. donovani strain MHOM/ET/67/L82; assay: Activity against Leishmania donovani axenic amastigotes (Alamar Blue); assay type: cell-based; details: for IC50: Leishmania donovani, axenic amastigotes, MHOM/ET/67/L82, 72 h
Procedure: Amastigotes of L. donovani strain MHOM/ET/67/L82 were grown in axenic culture at 37 °C in SM medium at pH 5.4 supplemented with 10% heat-inactivated fetal bovine serum under an atmosphere of 5% CO2 in air. One hundred microlitres of culture medium with 10^5 amastigotes from axenic culture with or without a serial drug dilution were seeded in 96-well microtitre plates. Serial drug dilutions covering a range from 90 to 0.123 μg/mL were prepared. After 72 h of incubation the plates were inspected under an inverted microscope to assure growth of the controls and sterile conditions. 10 μL of Alamar Blue (12.5 mg resazurin dissolved in 100 mL distilled water) were then added to each well and the plates incubated for another 2 h. Then, the plates were read with a Spectramax Gemini XS microplate fluorometer using an excitation wavelength of 536 nm and an emission wavelength of 588 nm. Data were analyzed using the software Softmax Pro (Molecular Devices Cooperation, Sunnyvale, CA, USA). Decrease of fluorescence (=inhibition) was expressed as percentage of the fluorescence of control cultures and plotted against the drug concentrations. From the sigmoidal inhibition curves the IC50 values were calculated. Miltefosine was used as reference drug.

[3] = Cytotoxicity against L6 cells (Alamar Blue); assay type: cell-based, rat
Procedure: Assays were performed in 96-well microtiter plates, each well containing 100 μL of RPMI 1640 medium supplemented with 1% L-glutamine (200 mM) and 10% fetal bovine serum, and 4 × 10^4 L6 cells (a […] cell line derived from rat skeletal myoblasts). Serial drug dilutions of seven 3-fold dilution steps covering a range from 90 to 0.123 μg/mL were prepared. After 72 h of incubation, the plates were inspected under an inverted microscope to assure growth of the controls and sterile conditions. Ten μL of Alamar Blue solution was then added to each well and the plates incubated for another 2 h. Then the plates were read with a Spectramax Gemini XS microplate fluorometer using an excitation wavelength of 536 nm and an emission wavelength of 588 nm. Data were analysed using the microplate reader software Softmax Pro. Podophyllotoxin was the reference drug used.

[4] = tested on: T. cruzi Tulahuen strain C2C4; assay: Activity against Trypanosoma cruzi (intracellular amastigotes in L6 cells, beta-galactosidase/CPRG); assay type: cell-based; details: for IC50: Trypanosoma cruzi, TULAHUEN, Myoblast, in Rattus norvegicus, 96 h, intracellular amastigotes in L6 rat skeletal myoblasts, Tulahuen C2C4, 96 h
Procedure: Rat skeletal myoblasts (L6 cells) were seeded in 96-well microtitre plates at 2000 cells/well in 100 μL RPMI 1640 medium with 10% FBS and 2 mM L-glutamine. After 24 h the medium was removed and replaced by 100 μL per well containing 5000 trypomastigote forms of T. cruzi Tulahuen strain C2C4 containing the β-galactosidase (Lac Z) gene. After 48 h, the medium was removed from the wells and replaced by 100 μL fresh medium with or without a serial drug dilution of seven 3-fold dilution steps covering a range from 90 to 0.123 μg/mL. After 96 h of incubation, the plates were inspected under an inverted microscope to assure growth of the controls and sterility. Then, the substrate CPRG/Nonidet (50 μL) was added to all wells. A color reaction developed within 2–6 h and could be read photometrically at 540 nm. Data were transferred into the graphic programme Softmax Pro (Molecular Devices), which calculated IC50 values. Benznidazole was the reference drug used.

[5] = bloodstream forms, STIB 900, 72 h, average of at least two independent assays in duplicates
[6] = K1, erythrocytic stages, K1 strain resistant to chloroquine and pyrimethamine, read-out: IC50 Plasmodium falciparum

SMILES | IC50 [1, 5] [µg/mL] | IC50 (P. falciparum K1 strain; [6]) [µg/mL] | IC50 [2] [µg/mL] | IC50 at 72 h ([3]; rat) [µg/mL] | IC50 [4] [µg/mL] | selectivity index (IC50 against L6 cells/IC50 against parasite) (P. falciparum K1 strain; towards the malaria parasite (P. falciparum)) | selectivity index (IC50 against L6 cells/IC50 against parasite) ([2]; for L. donovani) | fold less active against T. cruzi than against T. b. rhodesiense ([4]; ratio of IC50 values) [fold] | IC50 (P. falciparum K1 strain; K1, read-out: IC50 Plasmodium falciparum) [µg/mL] | IC50 ([1]; 72 h) [µg/mL] | IC50 at 72 h ([3]; L6 cells (rat skeletal myoblasts), 72 h, read-out: IC50 Cytotoxicity) [µg/mL]
CC(C)=CCC/C(C)=C/CC/C(C)=C/CC/C(C)=C/CCc1ccoc1 [Compound 1, furospinulosin-1] | 27.4 (≈ 77.4 µM) | 11.2 (≈ 31.5 µM) | 14.2 (≈ 40 µM) | > 90 | > 90 | – | – | – | – | – | –
CC(C)=CCC/C(C)=C/CC/C(C)=C/CC/C(C)=C/CC/C(C)=C/CCc1ccoc1 [Compound 2, furospinulosin-2] | 16.2 (≈ 38.2 µM) | 3.51 (≈ 8.3 µM) | > 90 | 34 (≈ 80.4 µM) | > 90 | – | – | – | – | – | –
C/C(=C\CCc1ccoc1)C[C@@H](O)C[C@@H](C)CCCc1ccoc1 [Compound 3, furospongin-1] | 13.9 (≈ 42.2 µM) | 14 (≈ 42.4 µM) | 4.8 (≈ 14.5 µM) | 27.4 (≈ 83.1 µM) | 17.5 (≈ 52.9 µM) | – | – | – | – | – | –
COC(=O)/C(C)=C/CC/C(=C/CC/C(C)=C/CC/C(C)=C/CCc1ccoc1)C(=O)O [Compound 4, furospongin-4] | 17.9 (≈ 41.9 µM) | 7.51 (≈ 17.5 µM) | > 90 | > 90 | > 90 | – | – | – | – | – | –
CC(C)=CCC/C(C)=C/CC/C(C)=C/CC/C(C)=C/CC/C(C)=C/CC/C(C)=C/CCC1(C)C=Cc2cc(O)ccc2O1 (centres unmarked) [Compound 6, 2-(hexaprenylmethyl)-2-methylchromenol] | 41.4 (≈ 70.8 µM) | > 20 | 15.9 (≈ 27.2 µM) | > 90 | > 90 | – | – | – | – | – | –
CC(C)=CCC/C(C)=C/CC/C(C)=C/CC/C(C)=C/CC/C(C)=C/CC/C(C)=C/CC/C(C)=C/CC/C(C)=C/Cc1cc(C(=O)O)ccc1O [Compound 7, 4-hydroxy-3-octaprenylbenzoic acid] | 13.1 (≈ 19.2 µM) | ~1 (≈ 1.46 µM) | 5.6 (≈ 8.2 µM) | 86.5 (≈ 127 µM) | > 90 | – | – | – | – | – | –
CC(C)=CCC/C(C)=C/CC/C(C)=C/CC/C(C)=C/Cc1cc(CC(=O)O)ccc1O [Compound 8, 4-hydroxy-3-tetraprenylphenylacetic acid] | 0.6 (≈ 1.41 µM) | 3.3 (≈ 7.77 µM) | > 90 | > 90 | > 90 | – | – | – | – | – | –
CC(C)=CCC/C(C)=C/CC/C(C)=C/CC/C=C(\C)CC/C=C(\C)CCC=C(C)C [Compound 10, squalene] | 15 (≈ 36.6 µM) | ~1 (≈ 2.43 µM) | > 90 | 34.9 (≈ 84.9 µM) | > 90 | – | – | – | – | – | –
CC(=O)O[C@H]1C=C2C(=O)OCC2[C@@]2(C)C1[C@@]1(C)CCCC(C)(C)C1C[C@@H]2OC(C)=O (some centres unmarked) [Compound 11, dorisenone D] | 2.47 (≈ 5.9 µM) | 0.43 (≈ 1.03 µM) | > 90 | 3.93 (≈ 9.39 µM) | > 90 | > 9 | – | – | – | – | –
CC(=O)O[C@H]1C=C2C(=O)OCC2[C@]2(C)CCC3C(C)(C)CCC[C@]3(C)C12 (stereo partly drawn) [Compound 12, 11β-acetoxyspongi-12-en-16-one] | 4.14 (≈ 11.5 µM) | ~1 (≈ 2.77 µM) | 0.75 (≈ 2.08 µM) | 3.32 (≈ 9.21 µM) | ~4 (≈ 11.1 µM) | – | 4.4 | – | – | – | –
CC(=O)O[C@H]1CC2[C@@]3(C)CCCC(C)(C)C3CC[C@@]2(C)C2CC=C3CO[C@@H](O)C3[C@]21C (stereo partly drawn) [Compound 13, 12-epi-deoxoscalarin] | 55.2 (≈ 128 µM) | 7.48 (≈ 17.4 µM) | > 90 | 60.3 (≈ 140 µM) | 40.4 (≈ 93.9 µM) | – | – | – | – | – | –
OCCc1c[nH]c2ccccc12 [Compound 14, tryptophol] | 5.89 (≈ 36.5 µM) | 5.08 (≈ 31.5 µM) | 9.6 (≈ 59.6 µM) | 63.5 (≈ 394 µM) | 49.4 (≈ 306 µM) | – | – | 8 | – | – | –
O=C(Cn1ccnc1[N+](=O)[O-])NCc1ccccc1 [benznidazole, reference compound] | – | – | – | – | 0.359 (≈ 1.38 µM) | – | – | – | – | – | –
CCN(CC)CCCC(C)Nc1ccnc2cc(Cl)ccc12 (centres unmarked) [chloroquine, reference compound] | – | – | – | – | – | – | – | – | 0.056 (≈ 0.175 µM) | – | –
Nc1nc(N)nc(Nc2ccc([As]3SCC(CO)S3)cc2)n1 (centres unmarked) [melarsoprol, reference compound] | – | – | – | – | – | – | – | – | – | 0.003 | –
CCCCCCCCCCCCCCCCOP(=O)([O-])OCC[N+](C)(C)C [miltefosine, reference compound] | – | – | 0.2 (≈ 0.491 µM) | – | – | – | – | – | – | – | –
COc1cc([C@@H]2c3cc4c(cc3[C@H](O)[C@H]3COC(=O)[C@H]23)OCO4)cc(OC)c1OC [podophyllotoxin, reference compound] | – | – | – | – | – | – | – | – | – | – | 0.004 (≈ 0.00965 µM)
